ChEMBL document CHEMBL1156950, “Synthesis and biological evaluation of 4-anilinoquinolines as potent inhibitors of epidermal growth factor receptor” (J Med Chem, 2010)
pIC50: −log10 of the molar value.

Tests used:
[1] = target: Serine/threonine-protein kinase PLK1 (Homo sapiens) (UniProt P53350); assay: Inhibition of PLK1 at 10 uM assessed as residual activity by [33P]ATP radioactive filter binding assay relative to control
[2] = target: Calcium/calmodulin-dependent protein kinase kinase 2 (Homo sapiens) (UniProt Q96RR4); assay: Inhibition of CAMKKbeta at 10 uM assessed as residual activity by [33P]ATP radioactive filter binding assay relative to control
[3] = target: MAP kinase-activated protein kinase 5 (Homo sapiens) (UniProt Q8IW41); assay: Inhibition of PRAK at 10 uM assessed as residual activity by [33P]ATP radioactive filter binding assay relative to control
[4] = target: Maternal embryonic leucine zipper kinase (Homo sapiens) (UniProt Q14680); assay: Inhibition of MELK at 10 uM assessed as residual activity by [33P]ATP radioactive filter binding assay relative to control
[5] = target: Ephrin type-B receptor 3 (Homo sapiens) (UniProt P54753); assay: Inhibition of EPH-B3 at 10 uM assessed as residual activity by [33P]ATP radioactive filter binding assay relative to control
[6] = target: Mitogen-activated protein kinase kinase kinase kinase 2 (Homo sapiens) (UniProt Q12851); assay: Inhibition of GCK at 10 uM assessed as residual activity by [33P]ATP radioactive filter binding assay relative to control
[7] = target: MAP kinase-activated protein kinase 2 (Homo sapiens) (UniProt P49137); assay: Inhibition of MAPKAP-K2 at 10 uM assessed as residual activity by [33P]ATP radioactive filter binding assay relative to control
[8] = target: Tyrosine-protein kinase Yes (Homo sapiens) (UniProt P07947); assay: Inhibition of YES1 at 10 uM assessed as residual activity by [33P]ATP radioactive filter binding assay relative to control
[9] = cells; details: Mus musculus, BaF3, 96 h
Description: Growth inhibition of mouse BA/F3 cells expressing EGFR Del5 mutant after 96 hrs by cell titer-glo assay

[10] = target: Serine/threonine-protein kinase STK11 (Homo sapiens) (UniProt Q15831); assay: Inhibition of LKB1 at 10 uM assessed as residual activity by [33P]ATP radioactive filter binding assay relative to control
[11] = target: Dual specificity tyrosine-phosphorylation-regulated kinase 3 (Homo sapiens) (UniProt O43781); assay: Inhibition of DYRK3 at 10 uM assessed as residual activity by [33P]ATP radioactive filter binding assay relative to control
[12] = Inhibition of PHK at 10 uM assessed as residual activity by [33P]ATP radioactive filter binding assay relative to control
[13] = target: SRSF protein kinase 1 (Homo sapiens) (UniProt Q96SB4); assay: Inhibition of SRPK1 at 10 uM assessed as residual activity by [33P]ATP radioactive filter binding assay relative to control
[14] = test system: Lymphokine-activated killer T-cell-originated protein kinase; assay: Inhibition of PBK1 at 10 uM assessed as residual activity by [33P]ATP radioactive filter binding assay relative to control
[15] = cells; details: Mus musculus, BaF3, 96 h; remark: listed apart in the source
Description: Growth inhibition of mouse BA/F3 cells expressing EGFR Del1 mutant after 96 hrs by cell titer-glo assay

[16] = target: Serine/threonine-protein kinase Nek2 (Homo sapiens) (UniProt P51955); assay: Inhibition of NEK2a at 10 uM assessed as residual activity by [33P]ATP radioactive filter binding assay relative to control
[17] = target: Serine/threonine-protein kinase D1 (Homo sapiens) (UniProt Q15139); assay: Inhibition of PKD1 at 10 uM assessed as residual activity by [33P]ATP radioactive filter binding assay relative to control
[18] = target: Mitogen-activated protein kinase 1 (Homo sapiens) (UniProt P28482); assay: Inhibition of ERK2 at 10 uM assessed as residual activity by [33P]ATP radioactive filter binding assay relative to control
[19] = target: Serine/threonine-protein kinase pim-2 (Homo sapiens) (UniProt Q9P1W9); assay: Inhibition of PIM2 at 10 uM assessed as residual activity by [33P]ATP radioactive filter binding assay relative to control
[20] = target: Mitogen-activated protein kinase 13 (Homo sapiens) (UniProt O15264); assay: Inhibition of p38delta at 10 uM assessed as residual activity by [33P]ATP radioactive filter binding assay relative to control
[21] = target: Serine/threonine-protein kinase pim-1 (Homo sapiens) (UniProt P11309); assay: Inhibition of PIM1 at 10 uM assessed as residual activity by [33P]ATP radioactive filter binding assay relative to control
[22] = target: Serine/threonine-protein kinase BRSK1 (Homo sapiens) (UniProt Q8TDC3); assay: Inhibition of BRSK1 at 10 uM assessed as residual activity by [33P]ATP radioactive filter binding assay relative to control
[23] = cells; details: Mus musculus, BaF3, 96 h; remark: listed apart in the source
Description: Growth inhibition of mouse BA/F3 cells expressing EGFR Del3 mutant after 96 hrs by cell titer-glo assay

[24] = target: Homeodomain-interacting protein kinase 2 (Homo sapiens) (UniProt Q9H2X6); assay: Inhibition of HIPK2 at 10 uM assessed as residual activity by [33P]ATP radioactive filter binding assay relative to control
[25] = target: Mitogen-activated protein kinase 11 (Homo sapiens) (UniProt Q15759); assay: Inhibition of p38beta at 10 uM assessed as residual activity by [33P]ATP radioactive filter binding assay relative to control
[26] = target: Insulin receptor (Homo sapiens) (UniProt P06213); assay: Inhibition of His-IR at 10 uM assessed as residual activity by [33P]ATP radioactive filter binding assay relative to control
[27] = target: Inhibitor of nuclear factor kappa-B kinase subunit epsilon (Homo sapiens) (UniProt Q14164); assay: Inhibition of IKKepsilon at 10 uM assessed as residual activity by [33P]ATP radioactive filter binding assay relative to control
[28] = target: Mitogen-activated protein kinase kinase kinase 11 (Homo sapiens) (UniProt Q16584); assay: Inhibition of MLK3 at 10 uM assessed as residual activity by [33P]ATP radioactive filter binding assay relative to control
[29] = target: Protein kinase C alpha type (Homo sapiens) (UniProt P17252); assay: Inhibition of PKCalpha at 10 uM assessed as residual activity by [33P]ATP radioactive filter binding assay relative to control
[30] = target: Epidermal growth factor receptor (Homo sapiens, UniProt P00533); assay: Inhibition of wild type EGFR by HTRF assay
[31] = target: MAP kinase-interacting serine/threonine-protein kinase 2 (Homo sapiens) (UniProt Q9HBH9); assay: Inhibition of MNK2 at 10 uM assessed as residual activity by [33P]ATP radioactive filter binding assay relative to control
[32] = target: Inhibitor of nuclear factor kappa-B kinase subunit beta (Homo sapiens) (UniProt O14920); assay: Inhibition of IKK-beta at 10 uM assessed as residual activity by [33P]ATP radioactive filter binding assay relative to control
[33] = target: Ribosomal protein S6 kinase alpha-5 (Homo sapiens) (UniProt O75582); assay: Inhibition of MSK1 at 10 uM assessed as residual activity by [33P]ATP radioactive filter binding assay relative to control

Chain of Mitogen-activated protein kinase 13 (Homo sapiens) (O15264 whole entry): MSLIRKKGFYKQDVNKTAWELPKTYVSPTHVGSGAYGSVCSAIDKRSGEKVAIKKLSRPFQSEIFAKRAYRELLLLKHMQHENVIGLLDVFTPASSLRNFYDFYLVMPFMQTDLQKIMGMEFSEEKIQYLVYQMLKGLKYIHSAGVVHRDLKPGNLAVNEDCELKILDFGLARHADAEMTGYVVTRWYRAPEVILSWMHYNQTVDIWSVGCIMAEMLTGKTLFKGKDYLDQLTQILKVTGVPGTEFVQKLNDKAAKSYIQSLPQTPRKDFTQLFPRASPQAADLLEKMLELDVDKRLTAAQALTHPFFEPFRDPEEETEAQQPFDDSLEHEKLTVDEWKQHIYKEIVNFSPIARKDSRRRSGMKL
Chain of Mitogen-activated protein kinase kinase kinase 11 (Homo sapiens) (Q16584 whole entry, looked up): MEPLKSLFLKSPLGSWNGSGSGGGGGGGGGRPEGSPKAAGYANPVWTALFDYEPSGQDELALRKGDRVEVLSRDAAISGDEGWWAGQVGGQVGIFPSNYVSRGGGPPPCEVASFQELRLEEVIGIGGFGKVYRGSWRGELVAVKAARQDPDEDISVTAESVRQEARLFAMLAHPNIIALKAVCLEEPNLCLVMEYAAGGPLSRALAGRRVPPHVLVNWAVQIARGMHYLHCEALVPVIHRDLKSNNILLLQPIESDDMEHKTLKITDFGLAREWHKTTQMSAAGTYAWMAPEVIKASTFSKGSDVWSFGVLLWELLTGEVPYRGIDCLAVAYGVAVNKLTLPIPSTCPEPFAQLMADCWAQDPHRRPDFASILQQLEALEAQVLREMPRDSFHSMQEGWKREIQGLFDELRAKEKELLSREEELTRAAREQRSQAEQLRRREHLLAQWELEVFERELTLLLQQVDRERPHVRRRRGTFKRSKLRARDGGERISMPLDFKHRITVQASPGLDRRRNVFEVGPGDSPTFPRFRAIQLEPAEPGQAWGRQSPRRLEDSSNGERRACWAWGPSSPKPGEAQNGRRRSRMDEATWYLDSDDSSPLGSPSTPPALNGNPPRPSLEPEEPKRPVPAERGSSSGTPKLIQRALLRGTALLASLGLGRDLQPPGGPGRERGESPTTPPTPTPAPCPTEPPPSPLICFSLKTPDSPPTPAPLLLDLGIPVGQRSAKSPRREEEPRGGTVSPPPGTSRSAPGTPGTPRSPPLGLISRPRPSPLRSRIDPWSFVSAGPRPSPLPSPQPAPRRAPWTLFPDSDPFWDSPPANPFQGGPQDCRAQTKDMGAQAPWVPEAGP
Chain of Ephrin type-B receptor 3 (Homo sapiens) (P54753 whole entry): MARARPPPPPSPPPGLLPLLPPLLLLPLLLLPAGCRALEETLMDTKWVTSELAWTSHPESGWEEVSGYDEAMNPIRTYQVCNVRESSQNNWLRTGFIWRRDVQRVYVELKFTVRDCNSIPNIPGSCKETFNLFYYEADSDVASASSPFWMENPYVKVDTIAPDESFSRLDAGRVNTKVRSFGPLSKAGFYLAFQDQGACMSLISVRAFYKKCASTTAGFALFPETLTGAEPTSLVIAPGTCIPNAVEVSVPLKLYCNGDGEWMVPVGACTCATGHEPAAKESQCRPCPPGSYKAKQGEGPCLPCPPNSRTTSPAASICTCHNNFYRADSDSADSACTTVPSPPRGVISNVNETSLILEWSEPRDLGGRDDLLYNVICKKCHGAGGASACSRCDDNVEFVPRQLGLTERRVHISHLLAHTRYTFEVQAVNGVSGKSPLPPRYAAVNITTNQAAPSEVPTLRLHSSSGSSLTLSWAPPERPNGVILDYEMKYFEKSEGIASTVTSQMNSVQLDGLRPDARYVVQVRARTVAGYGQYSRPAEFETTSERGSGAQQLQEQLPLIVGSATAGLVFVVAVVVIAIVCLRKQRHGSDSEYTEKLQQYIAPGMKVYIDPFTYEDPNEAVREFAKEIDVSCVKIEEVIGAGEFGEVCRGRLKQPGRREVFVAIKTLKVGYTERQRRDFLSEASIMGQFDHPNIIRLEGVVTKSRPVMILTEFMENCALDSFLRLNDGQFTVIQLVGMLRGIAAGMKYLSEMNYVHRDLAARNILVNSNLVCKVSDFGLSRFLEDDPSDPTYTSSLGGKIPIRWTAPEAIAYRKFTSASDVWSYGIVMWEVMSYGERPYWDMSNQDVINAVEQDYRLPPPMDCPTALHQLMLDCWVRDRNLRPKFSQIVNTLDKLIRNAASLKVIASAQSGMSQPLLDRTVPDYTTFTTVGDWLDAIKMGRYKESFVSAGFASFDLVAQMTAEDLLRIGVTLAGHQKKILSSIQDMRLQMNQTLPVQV
Chain of Inhibitor of nuclear factor kappa-B kinase subunit beta (Homo sapiens) (O14920 whole entry): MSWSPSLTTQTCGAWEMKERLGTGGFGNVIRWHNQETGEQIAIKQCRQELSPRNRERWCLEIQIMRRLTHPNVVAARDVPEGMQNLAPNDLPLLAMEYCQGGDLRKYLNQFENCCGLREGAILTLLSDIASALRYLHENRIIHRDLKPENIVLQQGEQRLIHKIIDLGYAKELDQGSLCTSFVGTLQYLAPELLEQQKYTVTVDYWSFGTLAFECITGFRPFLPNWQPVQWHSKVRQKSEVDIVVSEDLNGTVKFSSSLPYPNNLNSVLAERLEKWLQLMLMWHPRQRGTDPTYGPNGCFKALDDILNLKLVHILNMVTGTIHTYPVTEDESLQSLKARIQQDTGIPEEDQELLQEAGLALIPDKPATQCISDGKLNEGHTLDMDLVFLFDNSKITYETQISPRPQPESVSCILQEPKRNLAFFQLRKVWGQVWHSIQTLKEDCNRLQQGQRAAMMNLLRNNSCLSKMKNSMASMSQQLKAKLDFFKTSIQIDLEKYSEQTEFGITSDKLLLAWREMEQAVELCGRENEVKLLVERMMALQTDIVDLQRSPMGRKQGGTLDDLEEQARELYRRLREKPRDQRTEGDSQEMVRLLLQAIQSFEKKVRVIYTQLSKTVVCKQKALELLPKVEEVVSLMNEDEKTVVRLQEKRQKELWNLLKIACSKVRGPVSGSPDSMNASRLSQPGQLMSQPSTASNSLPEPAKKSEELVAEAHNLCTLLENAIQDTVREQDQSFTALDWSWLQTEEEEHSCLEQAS
Chain of Calcium/calmodulin-dependent protein kinase kinase 2 (Homo sapiens) (Q96RR4 2-588 limits assumed): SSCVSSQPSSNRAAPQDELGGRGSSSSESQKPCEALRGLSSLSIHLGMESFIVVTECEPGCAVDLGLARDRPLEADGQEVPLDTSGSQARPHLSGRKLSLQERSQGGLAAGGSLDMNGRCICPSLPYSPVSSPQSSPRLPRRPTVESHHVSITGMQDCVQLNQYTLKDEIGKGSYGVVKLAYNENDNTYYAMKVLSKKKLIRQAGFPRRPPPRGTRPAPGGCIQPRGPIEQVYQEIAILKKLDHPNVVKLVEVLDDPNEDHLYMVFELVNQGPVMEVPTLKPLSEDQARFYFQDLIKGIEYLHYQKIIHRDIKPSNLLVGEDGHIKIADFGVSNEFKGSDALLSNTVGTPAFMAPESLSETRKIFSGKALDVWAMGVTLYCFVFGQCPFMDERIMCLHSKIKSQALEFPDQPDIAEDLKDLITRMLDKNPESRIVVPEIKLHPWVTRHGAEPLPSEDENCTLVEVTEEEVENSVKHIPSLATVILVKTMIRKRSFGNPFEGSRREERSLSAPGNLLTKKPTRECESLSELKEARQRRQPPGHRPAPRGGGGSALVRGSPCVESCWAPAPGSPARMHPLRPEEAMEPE
Chain of Homeodomain-interacting protein kinase 2 (Homo sapiens) (Q9H2X6 whole entry, looked up): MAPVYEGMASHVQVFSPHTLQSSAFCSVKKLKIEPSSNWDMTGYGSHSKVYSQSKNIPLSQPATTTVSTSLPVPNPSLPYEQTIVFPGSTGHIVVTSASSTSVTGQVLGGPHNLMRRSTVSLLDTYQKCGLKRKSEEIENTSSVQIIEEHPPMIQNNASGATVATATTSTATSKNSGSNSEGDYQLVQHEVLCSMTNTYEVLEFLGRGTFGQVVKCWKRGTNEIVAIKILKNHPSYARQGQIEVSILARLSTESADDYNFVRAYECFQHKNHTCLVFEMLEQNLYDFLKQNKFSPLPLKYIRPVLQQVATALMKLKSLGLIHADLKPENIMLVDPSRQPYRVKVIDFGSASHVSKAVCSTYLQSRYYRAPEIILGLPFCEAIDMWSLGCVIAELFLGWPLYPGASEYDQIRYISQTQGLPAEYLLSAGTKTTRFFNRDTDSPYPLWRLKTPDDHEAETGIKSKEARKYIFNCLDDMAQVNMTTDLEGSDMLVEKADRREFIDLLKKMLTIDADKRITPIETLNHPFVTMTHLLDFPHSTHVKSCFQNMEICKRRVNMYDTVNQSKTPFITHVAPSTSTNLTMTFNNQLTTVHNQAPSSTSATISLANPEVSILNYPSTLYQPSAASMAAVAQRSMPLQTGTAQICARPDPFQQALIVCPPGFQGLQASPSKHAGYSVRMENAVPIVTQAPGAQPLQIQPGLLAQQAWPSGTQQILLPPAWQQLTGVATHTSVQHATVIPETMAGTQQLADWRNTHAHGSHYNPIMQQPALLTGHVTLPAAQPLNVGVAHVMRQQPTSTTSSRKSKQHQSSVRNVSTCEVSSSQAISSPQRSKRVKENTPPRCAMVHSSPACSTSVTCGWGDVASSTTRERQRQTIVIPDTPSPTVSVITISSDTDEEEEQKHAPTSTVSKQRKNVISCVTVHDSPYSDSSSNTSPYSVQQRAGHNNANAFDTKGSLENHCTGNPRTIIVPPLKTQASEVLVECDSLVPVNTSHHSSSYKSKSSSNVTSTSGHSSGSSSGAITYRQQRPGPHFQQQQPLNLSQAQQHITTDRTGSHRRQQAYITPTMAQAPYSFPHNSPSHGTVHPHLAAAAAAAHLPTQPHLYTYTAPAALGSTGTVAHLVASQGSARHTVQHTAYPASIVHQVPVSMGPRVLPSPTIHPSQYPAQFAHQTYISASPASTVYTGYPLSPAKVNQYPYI
Chain of Serine/threonine-protein kinase pim-2 (Homo sapiens) (Q9P1W9 whole entry, looked up): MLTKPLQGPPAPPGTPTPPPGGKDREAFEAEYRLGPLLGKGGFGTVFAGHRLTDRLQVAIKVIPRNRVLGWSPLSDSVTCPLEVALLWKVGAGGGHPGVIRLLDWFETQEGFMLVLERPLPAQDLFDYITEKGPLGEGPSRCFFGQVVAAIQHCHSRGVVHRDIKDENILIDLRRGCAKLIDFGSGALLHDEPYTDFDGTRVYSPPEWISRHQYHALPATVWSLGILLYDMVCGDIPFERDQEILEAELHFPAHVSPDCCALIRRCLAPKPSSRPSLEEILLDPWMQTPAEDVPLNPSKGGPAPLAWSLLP

Activity [1] | Activity [2] | Activity [3] | Activity [4] | Activity [5] | Activity [6] | Activity [7] | Activity [8] | Activity [10] | Activity [11] | Activity [12] | Activity [13] | Activity [16] | Activity [17] | Activity [19] | Activity [20] | Activity [21] | Activity [22] | SMILES | GI50 [9] | GI50 [15] | further results
109% | 74% | 84% | 25% | 5% | 30% | 86% | 4% | 94% | 32% | 26% | 75% | 95% | 14% | 75% | 76% | 46% | 46% | CN(C)CCCC(=O)Nc1ccc2nccc(Nc3cccc(Br)c3)c2c1 | < 500 nM | < 500 nM | Activity [14]: 84%; Activity [18]: 88%; GI50 [23]: < 500 nM; Activity [24]: 104%; Activity [25]: 63%; Activity [26]: 85%; Activity [27]: 92%; Activity [28]: 84%; Activity [29]: 81%; pIC50 [30]: 8.77; Activity [31]: 21%; Activity [32]: 62%; Activity [33]: 96%
95% | 66% | 89% | 49% | 17% | 48% | 90% | 7% | 103% | 27% | 10% | 87% | 96% | 18% | 62% | 79% | 12% | 52% | CN(C)CCCC(=O)Nc1ccc2ncnc(Nc3cccc(Br)c3)c2c1 | < 500 nM | < 500 nM | GI50 [23]: < 500 nM; Activity [24]: 97%; Activity [25]: 81%; Activity [26]: 79%; Activity [27]: 89%; Activity [28]: 65%; Activity [29]: 78%; Activity [31]: 14%; Activity [32]: 90%; Activity [33]: 93%
